In patent US20250368987A1, “COMPOSITION COMPRISING TAF10 INHIBITOR FOR PREVENTING OR TREATING COLORECTAL CANCER” (KOREA ADVANCED INSTITUTE OF SCIENCE AND TECHNOLOGY, priority 2021, published 2025):

Columns and labels:
cancer cells = assay: Combined TAF10 inhibition and oxaliplatin: confluence, PI staining, FACS cell death; assay type: cell-based
Description: (§1) Infected cells were inoculated in a 96-well plate (6×10^3 cell/well) to measure the cell growth and the cell growth was recorded every 3 hours using IncuCyte ZOOM (Essen Bioscience), and cell confluence was analyzed using IncuCyte ZOOM 2016A software.
Meanwhile, an increase in the cancer stemness of cancer cells may also cause increased resistance of cancer cells to anticancer agents. Therefore, a colorectal cancer animal model in which TAF10 was inhibited or not was treated with the anticancer agent, oxaliplatin (1 μM concentration) and its therapeutic effect was confirmed.
In addition, as a result of staining cells by treating a PI solution capable of confirming cell death, it was confirmed that proliferation was suppressed when TAF10 was inhibited, and that the number of dying cells increased when treated with oxaliplatin along with TAF10 inhibition (FIG. 9B).
In addition, the degree of cell death through PI and 7-AAD was confirmed through FACS. In this regard, Q1 means NECROSIS, Q2 means LATE APOPTOSIS, Q3 means EARLY APOPTOSIS, and Q4 means live cells. The degree of cell death may be determined by increasing the ratio of Q2. As a result, it was confirmed that the ratio of Q2 increased when TAF10 was inhibited and oxaliplatin was combined, so that it was confirmed that cell death increased (FIG. 9C).

HCT116 [1] = assay: Combined TAF10 inhibition and oxaliplatin in colorectal cancer-inducing animal model; assay type: in vivo, Nude mice
Description: First, TAF10 WT (wild type) and TAF10 knockdown (KD) cells were prepared in the same manner as in Experimental Example 1-3 using shRNA consisting of a base sequence represented by SEQ ID NO: 7 in HCT116, which was a colorectal cancer cell line. 2×10^6 of TAF10 WT or TAF10 KD was prepared and subcutaneously injected into Nude mice deficient of an immune system. Tumor occurrence was confirmed every two days, and its size was measured. In addition, in order to confirm the effect of combined treatment with anticancer agents, the colorectal cancer-inducing animal model prepared in the same manner as before was divided into four experimental groups, and after 2 weeks (14 days) when the tumor had formed to some extent, a control group was administered with PBS and in the experimental group, oxaliplatin was injected into the abdominal cavity at a concentration of 10 mg/kg every two days.
In addition, the combined effect in vivo was confirmed using a colorectal cancer-inducing animal model prepared by subcutaneously injecting HCT116 in which TAF10 was inhibited or HCT116 in which TAF10 was not inhibited. From two weeks after the tumor in each experimental group was formed, WT and KD were divided into two experimental groups. […]

CACO2 = assay: Growth rate of colorectal cancer cell line upon TAF10 inhibition (siRNA); assay type: cell-based; conditions: FIG. 4A
Description: (§2) Transfection reagents RNAiMAX (Thermo Fisher Scientific) and siRNA (BIONEER Corporation, Daejeon, South Korea) were mixed in an Opti-mem medium at a final concentration of 30 nM. Target cells were cultured with the mixture, and then cells were harvested for RNA extraction after 72 hours of siRNA transfection.
as §1
(§3) Through Example, it was confirmed that the TAF10 inhibition suppressed the growth of HCT116, a colorectal cancer cell line. As a result, the expression genes and proteins related with the growth rate and cell growth and the expression of genes and proteins related to cell cycle arrest were confirmed according to TAF10 inhibition (using siRNA) in HT29 and CACO2 colorectal cancer cell lines, which were other colorectal cancer cell lines. In addition, the cell cycle was confirmed according to TAF10 inhibition, and whether there was an increase in senescent cells was confirmed. The senescent cells were confirmed by staining the senescent cells using a senescence b-galactosidase staining kit (Cell signaling).

HT29 = assay: as above; assay type: cell-based; conditions: FIG. 4A
Description: as §2, §1, §3

HCT116 [2] = assay: qRT-PCR gene expression upon TAF10 inhibition; assay type: cell-based
HCT116 [3] = assay: Cell growth (IncuCyte confluence) after siRNA transfection; assay type: cell-based; conditions: HCT116, siRNA 30 nM, FIG. 2A
Description: as §2
The used siRNAs siNPM1, siTAF10, and siZNHIT1 were as follows. • (SEQ ID NO: 1) siTAF10-SENSE: GUGAAGAAGCCGCACUACU • (SEQ ID NO: 2) siTAF10-ANTISENSE: AGUAGUGCGGCUUCUUCAC • (SEQ ID NO: 3) siNPM1-SENSE: […] GA • (SEQ ID NO: 4) siNPM1-ANTISENSE: […] UC • (SEQ ID NO: 5) siZNHIT1-SENSE: GAGACUGCCUCAGUUUGAU • (SEQ ID NO: 6) siZNHIT1-ANTISENSE: AUCAAACUGAGGCAGUCUC 1-3. Transfection and Transduction of shRNA
as §1
Based on those confirmed in Example 1, NPM1, TAF, or ZNHIT1 of the colorectal cancer cell line HCT116 was inhibited as in Experimental Example 1-2, and its growth ability was confirmed. […] In addition, as a result of confirming overall survival probability when TAF10 is inhibited in The Cancer Genome Atlas (TCGA) as a large-scale cancer database, it was confirmed that the survival probability was increased (see FIG. 2B). […]

HCT116 [4] = assay: Cell cycle by FACS (PI staining); assay type: cell-based; conditions: HCT116, FIG. 5B
Description: The cells were treated with trypsin-EDTA, separated into single cells, washed twice with PBS, and fixed with 70% ethanol for 1 hour at −20° C. After washing again with PBS twice, the cells were treated with 20 μg/ml of RNase A, and flow cytometry analysis was performed through 20 μg/ml of propidium iodide (PI) staining.
as §3

HCT116 [5] = assay: Western blot protein expression upon TAF10 inhibition; assay type: cell-based
Description: Cellular proteins were dissolved and extracted on ice in a lysis buffer (20 mM HEPES (pH 7.2), 150 mM NaCl, 0.5% Triton X-100, 10% glycerol, 0.1% SDS) containing 0.1% protease inhibitor and phosphatase inhibitor cocktail (Thermo-scientific, USA). The proteins were separated through protein electrophoresis (10% gel) and transferred to a PVDF membrane. For Western blot, an anti-TAF10 (ab263967) antibody was purchased from Abcam, anti-AKT1 (2938S), anti-phosphoAkt (2965S), anti-phospho B-raf (#2696), anti-MEK1/2. (#9122), anti-phosphoERK1/2 (#9106), anti-STAT3 (#9139), and anti-phosphoSTAT3 (#9131) antibodies were purchased from Cell signaling, and anti-phospho m-TOR (sc-293133), anti-phosphoMEK1/2 (sc-81503), anti-CyclinE1 (sc-247), anti-CDK2 (sc-6248), and anti-VEGF (sc7269) antibodies were purchased and used from Santacruz. A rabbit polyclonal anti-GAPDH antibody was provided and used from the Korea Research Institute of Bioscience and Biotechnology. The expression of each protein band was confirmed using an enhanced chemiluminescence (ECL) solution.
Through Example, it was confirmed that the TAF10 inhibition suppressed the growth of HCT116, a colorectal cancer cell line. […]

HCT116 [6] = assay: Senescence b-galactosidase staining; assay type: cell-based; conditions: HCT116, FIG. 5C

Compound	effect of TAF10 inhibition on the anticancer effect of oxaliplatin (cancer cells; FIG. 9)	cancer confluence (cancer cells; TAF10 inhibited and oxaliplatin 1 μM, FIG. 9A)	ratio of Q2 (LATE APOPTOSIS), FACS PI and 7-AAD (cancer cells; TAF10 inhibited and oxaliplatin combined, FIG. 9C)	number of dying cells (PI staining) (cancer cells; oxaliplatin along with TAF10 inhibition, FIG. 9B)	tumor size (HCT116 [1]; TAF10 KD HCT116, oxaliplatin 10 mg/kg once every two days, after 44 days, FIG. 9E)	tumor size (tumor volume over time) (HCT116 [1]; TAF10 inhibited and oxaliplatin, FIGS. 9D and 9E)	growth rate (CACO2)	growth rate (HT29)	expression of genes TP53, CDKN1A, and CXCL8 related to cell cycle arrest (HCT116 [2]; FIG. 5A)	expression of genes MKI167, PCNA, and MCM7 related to cell growth (HCT116 [2]; HCT116, FIG. 4B)	cell proliferation (HCT116 [3])	cell cycle (HCT116 [4])	expression of proteins Cyclin E1 and CDK2 related to cell cycle arrest (HCT116 [5]; FIG. 5A)	expression of proteins tAkt1, pAkt, pGSK-3β, m-TOR, pB-raf, tMEK1/2, pMEK1/2, and pERK1/2 (HCT116 [5]; HCT116, FIG. 4B)	number of senescent cells (HCT116 [6])
O=C1[O][Pt]2([NH][C@@H]3CCCC[C@H]3[NH]2)[O]C1=O [oxaliplatin]	synergistic effect	significantly reduced	increased	increased	significantly reduced	significantly reduced									
siTAF10: siRNA targeting TAF10; sense GUGAAGAAGCCGCACUACU (SEQ ID NO: 1), antisense AGUAGUGCGGCUUCUUCAC (SEQ ID NO: 2) (listed as RNA, chemistry not given here)							reduced	reduced	increased	reduced	significantly reduced	arrested	increased	reduced	increased
